The results in this text go back to ChEMBL document CHEMBL5050844 (2019).

The nature of test [1]: Induction of anti-CD3 antibodies-stimulated human T cell activation at 1 uM assessed fold increase in CD25 expression measured by ELISA assay. Note: reference of the scale not given here. In kind it is functional, T cell line. In general terms: An ELISA detects its analyte on a solid surface through an enzyme-linked reagent.
Test [2] is described as follows: Induction of anti-CD3/CD28 antibodies-stimulated human T cell activation at 0.3 uM assessed fold increase in CD25 expression measured by ELISA assay. In kind it is functional, T cell line.
The nature of test [3]: Induction of anti-CD3/CD28 antibodies-stimulated human T cell activation at 1 uM assessed fold increase in CD25 expression measured by ELISA assay. In kind it is functional, T cell line.
The nature of test [4]: Induction of anti-CD3 antibodies-stimulated human T cell activation at 1 uM assessed fold increase in IL-2 secretion measured by ELISA assay. Note: reference of the scale not given here. The class given is functional, T cell line.
Test [5] has as its target E3 ubiquitin-protein ligase CBL-B (Homo sapiens, UniProt Q13191). As to the kind of experiment: Inhibition of N-terminal Avi-tagged human CBL-B (36 to 427 residues) incubated with 60 nM Src kinase for 1.5 hrs followed by incubation with fluorescently labeled UbcH5B-Ub for 1 hr and measured by TR-FRET assay. The class given is single protein. Background: Time-resolved FRET reads energy transfer from a long-lived donor to a nearby acceptor.

Test [6] can be described thus: Induction of anti-CD3/CD28 antibodies-stimulated human T cell activation at 0.3 uM assessed fold increase in IL-2 secretion measured by ELISA assay. The class given is functional, T cell line.
Test [7] can be described thus: Induction of anti-CD3/CD28 antibodies-stimulated human T cell activation at 1 uM assessed fold increase in IL-2 secretion measured by ELISA assay. In kind it is functional, T cell line.

Sequence of E3 ubiquitin-protein ligase CBL-B (Q13191 whole entry, the tested form may be a part): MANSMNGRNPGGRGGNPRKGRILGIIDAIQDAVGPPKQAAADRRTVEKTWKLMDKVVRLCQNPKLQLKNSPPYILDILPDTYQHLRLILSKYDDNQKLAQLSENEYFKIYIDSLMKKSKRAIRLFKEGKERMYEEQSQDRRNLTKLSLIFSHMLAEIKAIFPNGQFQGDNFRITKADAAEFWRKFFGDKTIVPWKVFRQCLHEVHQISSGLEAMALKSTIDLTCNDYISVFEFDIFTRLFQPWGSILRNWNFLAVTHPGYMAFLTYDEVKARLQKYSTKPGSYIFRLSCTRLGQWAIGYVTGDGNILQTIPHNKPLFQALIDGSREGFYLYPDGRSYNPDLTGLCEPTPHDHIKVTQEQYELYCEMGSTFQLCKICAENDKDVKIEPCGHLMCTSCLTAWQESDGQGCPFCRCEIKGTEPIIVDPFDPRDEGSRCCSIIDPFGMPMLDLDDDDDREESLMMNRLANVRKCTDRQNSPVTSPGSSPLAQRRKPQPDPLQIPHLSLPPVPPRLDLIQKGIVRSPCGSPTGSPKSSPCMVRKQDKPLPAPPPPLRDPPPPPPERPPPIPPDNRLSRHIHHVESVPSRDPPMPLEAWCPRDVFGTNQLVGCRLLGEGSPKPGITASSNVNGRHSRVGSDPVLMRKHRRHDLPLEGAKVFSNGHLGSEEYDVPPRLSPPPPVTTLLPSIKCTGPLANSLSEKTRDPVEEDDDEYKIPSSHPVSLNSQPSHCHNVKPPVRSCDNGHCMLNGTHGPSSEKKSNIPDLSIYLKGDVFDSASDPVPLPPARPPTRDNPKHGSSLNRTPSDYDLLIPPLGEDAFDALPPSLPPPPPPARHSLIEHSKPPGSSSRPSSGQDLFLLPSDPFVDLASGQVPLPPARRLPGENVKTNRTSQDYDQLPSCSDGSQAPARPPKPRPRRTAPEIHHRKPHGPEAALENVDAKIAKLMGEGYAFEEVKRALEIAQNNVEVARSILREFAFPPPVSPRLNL

One may read the IC50 as the midpoint of a concentration-inhibition curve. In the case of `Cn1cnnc1CC1(c2cccc(N3Cc4c(cc(CC5CCCO5)cc4C(F)(F)F)C3=O)c2)COC1` (centres undefined), the “fold change (FC)” value was 0.801 in test [1]; 1.01 in test [2]; 1.01 in test [3]; 0.101 in test [4]; 2.51 in test [6]; “>=7.5” in test [7]. Besides, the IC50 in test [5] is below 100 nM.

Regarding `C[C@@H]1CN(C)CCN1c1cc2c(c(C(F)(F)F)c1)CN(c1cccc(C3(Cc4nncn4C)COC3)c1)C2=O`, the “fold change (FC)” value in test [1] is on record as “>=1.001”; in test [2], 1.01; in test [3] it was 1.31; in test [4], 0.151; in test [6], 2.51; in test [7], “>=7.5”. This compound also gave an IC50 in test [5] below 100 nM.

With `CN1CCC(=O)C(Cc2cc3c(c(C(F)(F)F)c2)CN(c2cccc(C4(Cc5nncn5C)COC4)c2)C3=O)C1` (centres undefined), the “fold change (FC)” value in test [1] is on record as “>=1.001”; in test [2], 1.01; in test [3], 1.01; in test [4] it was “>=0.201”; in test [6], “>=7.5”; in test [7] it was “>=7.5”. The IC50 in test [5] is below 100 nM.

In the case of `COC1CCN(Cc2cc3c(c(C(F)(F)F)c2)CN(c2cccc(C4(Cc5nncn5C)COC4)c2)C3=O)CC1`, the “fold change (FC)” value is recorded as “>=1.001” in test [1]; 1.31 in test [2]; 1.51 in test [3]; “>=0.201” in test [4]; “>=7.5” in test [6]; “>=7.5” in test [7]. Moreover, the IC50 in test [5] is below 100 nM.

Turning to `Cn1cnnc1CC1(c2cccc(N3Cc4c(cc(CN5CC[C@@H](CO)C(F)(F)C5)cc4C(F)(F)F)C3=O)c2)COC1`, the “fold change (FC)” value in test [1] was 0.801; in test [2], 1.31; in test [3], 1.31; in test [4], 0.101; in test [6] it was 2.51; in test [7] it was “>=7.5”. In test [5], this compound registered an IC50 below 100 nM.

In the case of `Cn1cnnc1CC1(c2cccc(N3Cc4c(cc(OC5CNC5)cc4C(F)(F)F)C3=O)c2)COC1`, the “fold change (FC)” value in test [1] amounted to 0.801; in test [2], 1.01; in test [3] it was 1.01; in test [4], 0.051; in test [6], 1.01; in test [7], 1.01. In test [5], this compound displayed an IC50 below 100 nM.

As for `C[C@H](c1cc2c(c(C(F)(F)F)c1)CN(c1cccc(C3(Cc4nncn4C)COC3)c1)C2=O)N1CCC2(CC1)CC2`, the “fold change (FC)” value in test [1] is listed as “>=1.001”; in test [2], 1.01; in test [3] it was 1.01; in test [4], “>=0.201”; in test [6], “>=7.5”; in test [7], “>=7.5”. Moreover, the IC50 in test [5] was below 100 nM.

Regarding `Cn1cnnc1CC1(c2cccc(NC(=O)c3cc(OC(F)F)cc(C4CC4)n3)c2)COC1`, the “fold change (FC)” value in test [1] is listed as “>=1.001”; in test [2] it was 1.01; in test [3], 1.01; in test [4], “>=0.201”; in test [6], 5; in test [7] it was “>=7.5”. In test [5], the IC50 is below 100 nM.

Turning to `Cn1cnnc1CC1(c2cccc(N3Cc4c(cc(C5=CCOC5)cc4C(F)(F)F)C3=O)c2)COC1`, the “fold change (FC)” value in test [1] is given as 0.801; in test [2], 1.01; in test [3], 1.31; in test [4], 0.101; in test [6] it was 2.51; in test [7], 2.51. The compound further gave an IC50 in test [5] below 100 nM.

Take `Cn1cnnc1C(F)(F)[C@](C)(F)c1cccc(NC(=O)c2cc(CN3CC[C@H](F)C3)nc(C3CC3)n2)c1`: the “fold change (FC)” value in test [1] was found to be 0.801; in test [2] it was 1.01; in test [3], 1.01; in test [4], 0.051; in test [6], 2.51; in test [7] it was 5. In test [5], this compound came in with an IC50 below 100 nM.

Turning to `Cn1cnnc1CC1(c2cccc(N3Cc4c(cc(CN5CCc6ccccc6C5)cc4C(F)(F)F)C3=O)c2)COC1`, the “fold change (FC)” value in test [1] is given as “>=1.001”; in test [2], 1.01; in test [3] it was 1.31; in test [4] it was “>=0.201”; in test [6] it was 5; in test [7], “>=7.5”. In addition, the IC50 in test [5] is below 100 nM.

Consider `Cn1cnnc1CC1(c2cccc(N3Cc4c(cc(N5CCOC5=O)cc4C(F)(F)F)C3=O)c2)COC1`, for which the “fold change (FC)” value in test [1] was 0.601; in test [2] it was 1.01; in test [3] it was 1.01; in test [4], “<=0.05”; in test [6] it was 1.01; in test [7] it was 2.51. This compound yielded an IC50 in test [5] below 100 nM.

Take `C[C@@H](c1cc2c(c(C(F)(F)F)c1)CN(c1cccc(C3(C(F)(F)c4nncn4C)COC3)c1)C2=O)N1CC[C@H](F)C1`: the “fold change (FC)” value is on record as “>=1.001” in test [1]; 1.31 in test [2]; 1.51 in test [3]; “>=0.201” in test [4]; 2.51 in test [6]; “>=7.5” in test [7]. In addition, the IC50 in test [5] was below 100 nM.

On to `Cc1nc2c(o1)CCN(Cc1cc3c(c(C(F)(F)F)c1)CN(c1cccc(C4(Cc5nncn5C)COC4)c1)C3=O)C2`, for which the “fold change (FC)” value in test [1] is “>=1.001”; in test [2] it was 1.01; in test [3] it was 1.31; in test [4], “>=0.201”; in test [6] it was 5; in test [7], “>=7.5”. The IC50 in test [5] is below 100 nM.

For `CN1CC[C@@H](O)[C@H](Cc2cc3c(c(C(F)(F)F)c2)CN(c2cccc(C4(Cc5nncn5C)COC4)c2)C3=O)C1` (relative stereo), the “fold change (FC)” value in test [1] is listed as 0.801; in test [2], 1.01; in test [3], 1.01; in test [4] it was 0.101; in test [6], 1.01; in test [7], 2.51. For the same compound, the IC50 in test [5] was below 100 nM.

Regarding `C[C@@H](c1cc2c(c(C(F)(F)F)c1)CN(c1cccc(C3(Cc4nncn4C)COC3)c1)C2=O)N1CC(C)(F)C1`, the “fold change (FC)” value in test [1] is “>=1.001”; in test [2] it was 1.31; in test [3] it was 1.51; in test [4], “>=0.201”; in test [6], 2.51; in test [7], “>=7.5”. In test [5], this compound registered an IC50 below 100 nM.

`Cc1cc(C(=O)Nc2cccc(C3(Cc4nocc4C)COC3)c2)nc(C2CC2)n1`: the “fold change (FC)” value in test [1] is on record as “>=1.001”; in test [2], 1.31; in test [3] it was 1.31; in test [4], “>=0.201”; in test [6], “>=7.5”; in test [7] it was “>=7.5”. The same compound yielded an IC50 in test [5] below 100 nM.
